Laboratory results taken from PMC11642940, “A New Demand for Improved Selectivity and Potency of Cyanine Dyes as Antiproliferative Agents Against Colorectal Cancer Cells” (Molecules, 2024).

Key:
NHDF cell line = test: Phototoxicity assay (MTT after white light irradiation); type: cell-based; details: Homo sapiens, light or radiation study, 30 min white light irradiation (30 W RGB LED) after 48 h, 72 h in total
Experimental: While this work focused on monomethine cyanine dyes designed to be used at the outer edge of the “phototherapeutic window” (650–850 nm), photocytotoxicity and photostability studies were carried out for cyanines 5 and 10, as part of an effort to determine whether there would be synergistic action from light exposure on their cytotoxicity. A 30 W RGB LED light source, previously validated by our research group, was applied to the NHDF cell line using the MTT assay. […] These reductions in cytotoxicity align with previous studies on similar compounds and are likely due to some level of photodegradation.
A phototoxicity evaluation was performed on the NHDF cell line with a similar methodology to the MTT assay and following previously validated methods. After 48 h of incubation with increasing concentrations ranging from 0.001 to 100 μM, cells were subjected to 30 min of constant irradiation with the white light of a Luxtar (Yancheng, Jiangsu, China) RGBW LED projector (220–240 V and 30 W). After this irradiation, the cells were incubated at 37 °C for an additional 24 h (72 h in total). This assay was performed in quadruplicate, and two independent assays were realized.

[1] = target: T1, topoisomerase II (Topo II) (Homo sapiens, UniProt P11388); test: Topoisomerase II inhibitory assay (pRYG DNA relaxation, agarose gel); type: biochemical; details: 50 µM, 5.0 units Topo II, 250.0 ng pRYG DNA, mean ± SD of two assays
T1 construct: purchased TopoGEN Inc. (Buena Vista, CO, USA) 1009-1
Experimental: To do so, the impact of cyanines on Topo II activity was assessed using a pRYG DNA substrate in the presence and absence of the dyes. This was monitored via a Topo II drug screening kit followed by agarose gel electrophoresis. […] All samples applied to the agarose gel contained 5.0 units of Topo II and 250.0 ng of pRYG DNA as the substrate. Linear pRYG DNA (Lane DNA marker) served as the reference control for the DNA band positions, and 50 µM VP-16 (Lane 3) was used as a positive control. […]
The formation of relaxed DNA products, indicating Topo II activity, is visible in Lane 1 (incubation of pRYG DNA with Topo II) of Figure 8A. […] The intensity of the relaxed DNA bands from two independent experiments was quantified for all samples and normalized to the Topo II activity in the absence of inhibitors (No drug sample, Lane 1) using Image Lab, Version 6.1 (Figure 8B). […]
Cyanine stock solutions in DMSO were further diluted with Tris-HCl (DMSO:Tris-HCl–1:9) to the concentrations desired for assays. […] Electrophoresis was run at 110 V for 40 min and analyzed under ultraviolet (UV) light using a FireReader Imaging System (UVITEC, Cambridge, UK). Band intensities were measured using the software Image Lab, Version 6.1 (BioRad Laboratories, Hercules, CA, USA). […]

Caco-2 cells [2] = test: Fluorescence microscopy (cell penetration, intracellular localization); type: cell-based, human; details: Caco-2, 1 µM, 20 h, Hoescht 33342 counterstain
Experimental: The cells were incubated with the dyes for 20 h, followed by fixation and staining with Hoescht 33342, a commonly used cell-permeant nucleic acid stain.
Fluorescence microscopy was used to confirm whether the compounds under study cross the cell membrane, and to understand where they are located within the cell (nucleus and/or cytoplasm). To this end, the procedure previously described in Lima et al. was followed. Hoescht 33342 was used as a specific marker. Cells were seeded in 24-well culture plates containing sterile circular coverslips of 15 mm diameter. After 48 h for cell adhesion, they were incubated with the compounds for 20 h. After this incubation period, the cells were washed three times with PBS and the fixation process was carried out. To do this, the contents of the wells were removed, and a 4% formalin solution was added until the wells were covered, followed by an incubation at room temperature for 15 min. Then, the washing process was repeated three times with PBS, and the cells were then incubated with a solution of Hoescht 33342 (1:500) for 10 min, in the dark and at room temperature. Subsequently, the wells were washed again with PBS and the slides were mounted with permanent mounting medium (Dako) and left to dry in a cool and dry place for 24 h. […]

Caco-2 cells [3] = test: Caco-2 morphological analysis (optical microscopy); details: 72 h
Experimental: Sorbitol and 5-FU were used as positive controls, while untreated cells served as the negative control.
Caco-2 cells near confluency were trypsinized, counted, and then seeded at 3 × 10^4 cells/mL (3 mL) in 35 mm cell culture dishes previously treated for tissue culture. After cell adherence (48 h), they were incubated with solutions under study for 72 h in the absence of light. The cellular morphology was verified every 24 h using a CKX41 SF inverted microscope (Olympus, Tokyo, Japan) with 10, 20, or 40× objectives. A DC6 V digital camera (Olympus, Tokyo, Japan) coupled to the microscope was used to capture cell imaging. The morphology of cells in the presence or absence of treatments was compared.

T1 sequence (P11388 whole entry): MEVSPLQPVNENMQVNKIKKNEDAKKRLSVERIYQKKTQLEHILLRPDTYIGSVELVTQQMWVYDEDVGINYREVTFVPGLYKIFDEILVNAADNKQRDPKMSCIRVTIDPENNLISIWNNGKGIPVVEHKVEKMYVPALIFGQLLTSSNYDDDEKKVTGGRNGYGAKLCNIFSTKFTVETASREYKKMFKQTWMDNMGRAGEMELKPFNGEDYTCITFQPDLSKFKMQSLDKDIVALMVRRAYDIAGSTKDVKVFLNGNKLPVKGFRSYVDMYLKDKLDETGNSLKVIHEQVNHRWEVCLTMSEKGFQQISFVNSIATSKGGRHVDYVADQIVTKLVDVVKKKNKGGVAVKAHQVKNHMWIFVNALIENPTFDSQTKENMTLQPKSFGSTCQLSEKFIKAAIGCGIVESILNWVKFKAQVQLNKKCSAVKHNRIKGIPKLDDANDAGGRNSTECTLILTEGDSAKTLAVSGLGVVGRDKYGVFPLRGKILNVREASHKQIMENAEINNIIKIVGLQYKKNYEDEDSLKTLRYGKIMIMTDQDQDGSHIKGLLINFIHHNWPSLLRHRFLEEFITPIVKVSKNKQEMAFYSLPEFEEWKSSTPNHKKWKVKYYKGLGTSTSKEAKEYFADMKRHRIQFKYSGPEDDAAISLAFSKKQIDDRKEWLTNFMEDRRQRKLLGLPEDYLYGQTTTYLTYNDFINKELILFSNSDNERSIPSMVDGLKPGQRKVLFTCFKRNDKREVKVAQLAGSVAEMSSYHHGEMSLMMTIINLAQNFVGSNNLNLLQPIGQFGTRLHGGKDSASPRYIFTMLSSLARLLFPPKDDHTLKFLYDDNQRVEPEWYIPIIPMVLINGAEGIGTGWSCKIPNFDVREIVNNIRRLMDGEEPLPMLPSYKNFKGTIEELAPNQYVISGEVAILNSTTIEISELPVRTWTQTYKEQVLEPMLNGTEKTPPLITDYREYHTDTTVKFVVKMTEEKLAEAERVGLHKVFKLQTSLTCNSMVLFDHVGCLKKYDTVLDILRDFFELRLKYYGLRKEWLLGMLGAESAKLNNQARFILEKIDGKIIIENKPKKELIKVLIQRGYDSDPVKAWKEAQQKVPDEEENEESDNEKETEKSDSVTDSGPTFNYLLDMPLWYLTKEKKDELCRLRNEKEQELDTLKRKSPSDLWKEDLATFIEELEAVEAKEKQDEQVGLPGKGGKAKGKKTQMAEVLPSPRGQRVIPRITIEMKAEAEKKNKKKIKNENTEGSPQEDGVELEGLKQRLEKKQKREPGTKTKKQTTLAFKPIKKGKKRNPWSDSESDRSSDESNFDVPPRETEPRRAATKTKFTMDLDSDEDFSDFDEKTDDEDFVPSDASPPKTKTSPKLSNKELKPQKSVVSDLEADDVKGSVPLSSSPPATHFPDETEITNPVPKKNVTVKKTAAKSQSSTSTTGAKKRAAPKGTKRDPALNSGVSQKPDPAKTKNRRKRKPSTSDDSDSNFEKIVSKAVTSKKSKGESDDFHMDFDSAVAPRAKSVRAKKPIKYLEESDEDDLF

Structure (SMILES)	IC50 (NHDF cell line)	relative intensity of relaxed DNA band (normalized to No drug sample) [1]	cell membrane crossing, intracellular localization and fluorescence (Caco-2 cells [2])	morphological changes of Caco-2 cells (Caco-2 cells [3]; 1 µM)	morphological changes of Caco-2 cells (Caco-2 cells [3]; 10 µM)
CN1C(=Cc2oc3ccccc3[n+]2C)C=Cc2ccccc21.Cc1ccc(S(=O)(=O)[O-])cc1 [Dye 5, 3-Methyl-2-((1-methylquinolin-2(1H)-ylidene)methyl)benzo[d]oxazol-3-ium 4-methylbenzenesulfonate]	4.07 µM	0.31 ± 0.063	stain a specific organelle within the nucleoplasm but does not localize in the DNA	a few apoptotic bodies	–
CCN1C(=Cc2sc3cc([N+](=O)[O-])ccc3[n+]2CC)Sc2ccccc21.Cc1ccc(S(=O)(=O)[O-])cc1 [Dye 10, 3-Ethyl-2-((3-ethylbenzo[d]thiazol-2(3H)-ylidene)methyl)-6-nitrobenzo[d]thiazol-3-ium 4-methylbenzenesulfonate]	34.1 µM	0.65 ± 0.024	significantly lower fluorescence intensity compared to dye 5	–	noticeable reduction in the size of Caco-2 cells
